Laboratory results as given in patent US11396495B2, “Amine compound for inhibiting SSAO/VAP-1 and use thereof” (SUNSHINE LAKE PHARMA CO., LTD., priority 2017, dated 2022).
Counter-ions that a name gives are not always drawn.

Columns and labels:
[1] = molecular target: rat adipose tissue homogenate SSAO/VAP-1 (Rattus norvegicus (Rat), UniProt O08590); assay: Determination of inhibitory activity of rat adipose tissue homogenate SSAO/VAP-1; format: biochemical, Sprague Dawley rats; conditions: rat abdominal adipose tissue homogenate, pargyline pretreated, 37° C.
Chain of rat adipose tissue homogenate SSAO/VAP-1 (O08590 whole entry): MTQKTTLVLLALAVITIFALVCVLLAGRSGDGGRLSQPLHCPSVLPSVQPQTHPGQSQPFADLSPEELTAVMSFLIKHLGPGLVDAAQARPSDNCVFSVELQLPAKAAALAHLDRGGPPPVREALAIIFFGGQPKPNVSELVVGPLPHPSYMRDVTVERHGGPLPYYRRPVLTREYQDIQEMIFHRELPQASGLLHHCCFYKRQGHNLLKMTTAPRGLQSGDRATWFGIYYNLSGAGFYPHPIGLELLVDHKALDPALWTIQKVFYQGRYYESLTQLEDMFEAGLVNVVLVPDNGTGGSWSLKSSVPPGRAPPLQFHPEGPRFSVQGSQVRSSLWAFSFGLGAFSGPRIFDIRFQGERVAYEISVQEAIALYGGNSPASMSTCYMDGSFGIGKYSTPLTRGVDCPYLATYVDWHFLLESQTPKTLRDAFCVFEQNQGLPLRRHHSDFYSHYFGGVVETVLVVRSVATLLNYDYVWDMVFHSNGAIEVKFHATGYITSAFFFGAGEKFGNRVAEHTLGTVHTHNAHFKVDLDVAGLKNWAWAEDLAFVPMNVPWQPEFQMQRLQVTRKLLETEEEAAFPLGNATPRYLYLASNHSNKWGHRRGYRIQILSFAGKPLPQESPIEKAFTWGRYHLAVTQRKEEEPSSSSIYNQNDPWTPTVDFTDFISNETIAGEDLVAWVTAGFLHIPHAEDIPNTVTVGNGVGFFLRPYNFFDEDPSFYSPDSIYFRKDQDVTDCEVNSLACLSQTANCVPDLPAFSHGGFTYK
Procedure: 2. Determination of Inhibitory Activity of Rat Adipose Tissue Homogenate SSAO/VAP-1
Test purpose: The following methods can be used to determine the inhibitory activity of the compounds of the invention for rat adipose tissue homogenate SSAO/VAP-1.
The abdominal fat removed from Sprague Dawley rats was a tissue rich in SSAO/VAP-1. 5 mL Of HES buffer per gram of rat abdominal adipose tissue (20 mM Sodium N-piperazine-N-ethanesulfonate, 1 mm EDTA, 250 mM sucrose, 1×PMSF and 100 mM (3-glycerol phosphate disodium salt hydrate, pH 7.4) was added for homogenizing. The fat tissue was homogenized for 3 min by using Bertin precellys 24 multi-functional sample homogenizer of Bertin technologies, and the fat tissue homogenate was centrifuged for 10 min at 4° C. and 20000 g, and the middle transparent supernatant was taken. The supernatant was incubated with 0.5 mm Pargyline hydrochloride dissolved in HES buffer at 37° C. for 30 min. After 30 min incubation, 25 μl of fat tissue supernatant was added to the standard 96 well plate. The test compound was dissolved in DMSO and diluted to 6 concentrations. 25 μL Of the test compounds with different concentrations was added to each well containing the supernatant of fat tissue and incubated at 37° C. for 30 min. After incubation, 50 μL of the reaction mixture containing 80 μM benzylamine hydrochloride (containing 100 μM Amplex® red and 0.2 U/mL HRP, Amplex® Red Hydrogen peroxideperoxidase assay kit) was added to the corresponding wells and incubated at 37° C. for 30 min. After 30 min, the relative fluorescence unit (RFU) was read by using PHERAstar FSX enzyme marker of BMG LABTECH at 540 nm excitation and 580 nm emission. The curve was drawn by using the graph pad prism 5 software, and the IC50 value was calculated. The results were shown in table 2, wherein the compound listed in table 2 is the compound in the preparation examples with the same compound number: Table 2: inhibitory activity of the compound of examples of the invention for SSAO/VAP-1 of fat tissue homogenate

[2] = molecular target: Human recombinant SSAO/VAP-1 (Homo sapiens (Human), UniProt Q16853); assay: Determination of inhibitory activity of human recombinant SSAO/VAP-1 (Amplex Red, benzylamine); format: biochemical; conditions: human recombinant SSAO/VAP-1, 30 min preincubation at room temperature; read-out: SSAO/VAP-1(Human recombinant protein) IC50/nM
Chain of Human recombinant SSAO/VAP-1 (Q16853 whole entry): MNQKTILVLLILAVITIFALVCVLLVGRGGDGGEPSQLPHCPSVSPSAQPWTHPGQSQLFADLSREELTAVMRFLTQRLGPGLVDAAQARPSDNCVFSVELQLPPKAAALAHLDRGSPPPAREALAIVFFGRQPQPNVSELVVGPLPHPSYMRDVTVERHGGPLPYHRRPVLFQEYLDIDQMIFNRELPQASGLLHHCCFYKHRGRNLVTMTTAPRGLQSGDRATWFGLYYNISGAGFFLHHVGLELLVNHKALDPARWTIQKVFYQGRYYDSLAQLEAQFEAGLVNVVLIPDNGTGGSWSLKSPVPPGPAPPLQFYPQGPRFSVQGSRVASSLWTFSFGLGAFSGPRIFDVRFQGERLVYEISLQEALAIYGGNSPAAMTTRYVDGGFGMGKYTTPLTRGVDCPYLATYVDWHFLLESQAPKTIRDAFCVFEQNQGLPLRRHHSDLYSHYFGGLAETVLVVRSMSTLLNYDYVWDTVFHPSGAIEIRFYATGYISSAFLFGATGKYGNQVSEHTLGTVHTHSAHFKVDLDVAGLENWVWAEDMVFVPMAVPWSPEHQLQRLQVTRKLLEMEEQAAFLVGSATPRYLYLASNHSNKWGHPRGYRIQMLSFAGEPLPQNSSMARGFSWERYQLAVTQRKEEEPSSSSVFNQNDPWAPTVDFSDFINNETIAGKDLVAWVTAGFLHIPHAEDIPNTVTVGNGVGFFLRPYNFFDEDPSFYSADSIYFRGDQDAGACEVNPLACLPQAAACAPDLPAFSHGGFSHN
Procedure: 1. Determination of Inhibitory Activity of Human Recombinant SSAO/VAP-1
Test purpose: The following methods can be used to determine the inhibitory activity of the compounds described in the examples of the invention for human recombinant SSAO/VAP-1.
Human recombinant SSAO/VAP-1 (VAP-1, human) purchased from Sigma, Cat. No. SRP6241;
The test compound was dissolved in DMSO and diluted to 10 concentrations in 4-fold serial dilution. In 384 well plates, 25 μL of human recombinant SSAO/VAP-1 (1.6 μg/ml) was added to each well. 100 nL of test compounds with different concentrations were added to each well containing human recombinant SSAO/VAP-1 and incubated at room temperature for 30 min. After 30 min incubation, 25 μl of Amplex® red monoamine oxidase assay kit (containing a reaction mixture of 200 μm Amplex Red reagent, 1 U/ml HRP and 1 mm benzylamine hydrochloride) was added to the corresponding well, and incubated at room temperature and dark for 60 min. After 60 min, the relative fluorescence unit (RFU) was read by using PerkinElmer's Envision at 530-560 nm excitation and 590 nm emission. The curve was drawn by using the graph pad prism 5 software, and the IC50 value was calculated. The results were shown in table 1, wherein the compound listed in table 1 is the compound in the preparation examples with the same compound number: […]

Row | SMILES | IC50 [1] | IC50 [2]
1 | NC/C(=C\F)COc1ccc2c(c1)NC(=O)CC2 [Compound 1, 7-[(E)-2-(aminomethyl)-3-fluoro-allyloxy]-3,4-dihydro-1H-quinolin-2-one hydrochloride] | 10.1 nM | –
2 | NC/C(=C/F)COc1ccc2c(c1)NC(=O)CC2 [Compound 2, 7-[(Z)-2-(aminomethyl)-3-fluoro-allyloxy]-3,4-dihydro-1H-quinolin-2-one hydrochloride] | 11.6 nM | 1.01 nM
3 | NC/C(=C\F)COc1ccc2c(c1)CCN(c1ccccc1)C2=O [Compound 5, 6-[(E)-2-(aminomethyl)-3-fluoro-allyloxy]-2-phenyl-3,4-dihydroisoquinolin-1-one hydrochloride] | 4.87 nM | 0.37 nM
4 | NC/C(=C/F)COc1ccc2c(c1)CCN(c1ccccc1)C2=O [Compound 6, 6-[(Z)-2-(aminomethyl)-3-fluoro-allyloxy]-2-phenyl-3,4-dihydroisoquinolin-1-one hydrochloride] | – | 0.04 nM
5 | NC/C(=C\F)COc1ccc2c(c1)CCN(c1ncccn1)C2=O [Compound 7, 6-[(E)-2-(aminomethyl)-3-fluoro-allyloxy]-2-(pyrimidin-2-yl)-3,4-dihydroisoquinolin-1-one hydrochloride] | 8.98 nM | 0.09 nM
6 | CN1CCc2cc(OC/C(=C/F)CN)ccc2C1=O [Compound 8, 6-[(E)-2-(aminomethyl)-3-fluoro-allyloxy]-2-methyl-3,4-dihydroisoquinolin-1-one hydrochloride] | 8.84 nM | 0.32 nM
7 | CN1CCc2cc(OC/C(=C\F)CN)ccc2C1=O [Compound 9, 6-[(Z)-2-(aminomethyl)-3-fluoro-allyloxy]-2-methyl-3,4-dihydroisoquinolin-1-one hydrochloride] | 8.05 nM | 0.61 nM
8 | NC/C(=C\F)COc1ccc2c(c1)CCN(CC1CCOCC1)C2=O [Compound 10, 6-[(E)-2-(aminomethyl)-3-fluoro-allyloxy]-2-(tetrahydropyranyl-4-methylene)-3,4-dihydroisoquinolin-1-one hydrochloride] | 9.54 nM | –
9 | NC/C(=C/F)COc1ccc2c(c1)CCN(CC1CCOCC1)C2=O [Compound 11, 6-[(Z)-2-(aminomethyl)-3-fluoro-allyloxy]-2-(tetrahydropyranyl-4-methylene)-3,4-dihydroisoquinolin-1-one hydrochloride] | 11.7 nM | 0.82 nM
10 | CCOC(=O)CN1CCc2cc(OC/C(=C\F)CN)ccc2C1=O [Compound 13, ethyl 2-[6-[(Z)-2-(aminomethyl)-3-fluoro-allyloxy]-1-oxo-3,4-dihydroisoquinolin-2-yl]acetate hydrochloride] | 8.03 nM | 0.11 nM
11 | NC/C(=C\F)COc1ccc2c(c1)CCN(C1CCOCC1)C2=O [Compound 16, 6-[(E)-2-(aminomethyl)-3-fluoro-allyloxy]-2-(tetrahydropyran-4-yl)-3,4-dihydroisoquinolin-1-one hydrochloride] | 6.01 nM | 0.22 nM
12 | NC/C(=C/F)COc1ccc2c(c1)CCN(C1CCOCC1)C2=O [Compound 17, 6-[(Z)-2-(aminomethyl)-3-fluoro-allyloxy]-2-(tetrahydropyran-4-yl)-3,4-dihydroisoquinolin-1-one hydrochloride] | 5.03 nM | 0.58 nM
13 | NC/C(=C/F)COc1ccc2c(c1)CCN(CCOCc1ccccc1)C2=O [Compound 21, 6-[(Z)-2-(aminomethyl)-3-fluoro-allyloxy]-2-(2-benzyloxyethyl)-3,4-dihydro isoquinolin-1-one hydrochloride] | – | 0.91 nM
14 | NC/C(=C\F)COc1ccc2c(c1)CCN(c1ccccn1)C2=O [Compound 28, 6-[(E)-2-(aminomethyl)-3-fluoro-allyloxy]-2-(2-pyridyl)-3,4-dihydroisoquinolin-1-one hydrochloride] | – | 1.53 nM
15 | NC/C(=C\F)COc1ccc2c(c1)CCNS2(=O)=O [Compound 32, (E)-2-[(1,1-dioxo-3,4-dihydro-2H-benzo[e][1,2]thiazin-6-yl)oxymethyl]-3-fluoro-prop-2-enyl-1-amine hydrochloride] | 6.22 nM | –
16 | NC/C(=C\F)COc1ccc2c(c1)CCN(c1ccccc1F)C2=O [Compound 34, 6-[(E)-2-(aminomethyl)-3-fluoro-allyloxy]-2-(2-fluorophenyl)-3,4-dihydroisoquinolin-1-one hydrochloride] | – | 1.16 nM
17 | NC/C(=C/F)COc1ccc2c(c1)CCN(c1ccccc1F)C2=O [Compound 35, 6-[(Z)-2-(aminomethyl)-3-fluoro-allyloxy]-2-(2-fluorophenyl)-3,4-dihydroisoquinolin-1-one hydrochloride] | – | 0.71 nM
18 | N#Cc1ccc(N2CCc3cc(OC/C(=C/F)CN)ccc3C2=O)cc1 [Compound 38, 4-[6-[(E)-2-(aminomethyl)-3-fluoro-allyloxy]-1-oxo-3,4-dihydroisoquinolin-2-yl]benzonitrile hydrochloride] | – | 0.68 nM
19 | N#Cc1ccc(N2CCc3cc(OC/C(=C\F)CN)ccc3C2=O)cc1 [Compound 39, 4-[6-[(Z)-2-(aminomethyl)-3-fluoro-allyloxy]-1-oxo-3,4-dihydroisoquinolin-2-yl]benzonitrile hydrochloride] | – | 0.53 nM
20 | NC/C(=C\F)COc1ccc2c(c1)CCN(c1nccs1)C2=O [Compound 40, 6-[(E)-2-(aminomethyl)-3-fluoro-allyloxy]-2-thiazol-2-yl-3,4-dihydroisoquinolin-1-one hydrochloride] | – | 1 nM
21 | NC/C(=C/F)COc1ccc2c(c1)CCN(c1nccs1)C2=O [Compound 41, 6-[(Z)-2-(aminomethyl)-3-fluoro-allyloxy]-2-thiazol-2-yl-3,4-dihydroisoquinolin-1-one hydrochloride] | – | 0.63 nM
22 | NC/C(=C\F)COc1ccc2c(c1)CCN(Cc1ccon1)C2=O [Compound 42, 6-[(E)-2-(aminomethyl)-3-fluoro-allyloxy]-2-(isoxazol-3-yl-methyl)-3,4-dihydroisoquinolin-1-one hydrochloride] | – | 1.13 nM
23 | NC/C(=C/F)COc1ccc2c(c1)CCN(Cc1ccon1)C2=O [Compound 43, 6-[(Z)-2-(aminomethyl)-3-fluoro-allyloxy]-2-(isoxazol-3-yl-methyl)-3,4-dihydroisoquinolin-1-one hydrochloride] | – | 0.71 nM
24 | NC/C(=C/F)COc1ccc2c(c1)CCN(c1ccccc1)C2 [Compound 53, (Z)-3-fluoro-2-[(2-phenyl-3,4-dihydro-1H-isoquinolin-6-yl)oxymethyl]prop-2-enyl-1-amine hydrochloride] | – | 1.04 nM
25 | COc1ncc(N2CCc3cc(OC/C(=C\F)CN)ccc3C2=O)cn1 [Compound 55, 6-[(Z)-2-[(aminomethyl)-3-fluoro-allyloxy]-2-(2-methoxypyrimidin-5-yl)-3,4-dihydroisoquinolin-1-one hydrochloride] | – | 0.82 nM
26 | COC(=O)CCN1CCc2cc(OC/C(=C/F)CN)ccc2C1=O [Compound 56, methyl 3-[6-[(E)-2-(aminomethyl)-3-fluoro-allyloxy]-1-oxo-3,4-dihydroisoquinolin-2-yl]propionate hydrochloride] | – | 1.91 nM
27 | COC(=O)CCN1CCc2cc(OC/C(=C\F)CN)ccc2C1=O [Compound 57, methyl 3-[6-[(Z)-2-(aminomethyl)-3-fluoro-allyloxy]-1-oxo-3,4-dihydroisoquinolin-2-yl]propionate hydrochloride] | – | 1.27 nM
28 | COC(=O)CN1CCc2cc(OC/C(=C/F)CN)ccc2C1=O [Compound 58, methyl 2-[6-[(E)-2-(aminomethyl)-3-fluoro-allyloxy]-1-oxo-3,4-dihydroisoquinolin-2-yl]acetate hydrochloride] | – | 1.17 nM
29 | COC(=O)CN1CCc2cc(OC/C(=C\F)CN)ccc2C1=O [Compound 59, methyl 2-[6-[(Z)-2-(aminomethyl)-3-fluoro-allyloxy]-1-oxo-3,4-dihydroisoquinolin-2-yl]acetate hydrochloride] | – | 1.3 nM
